Source: ChEMBL document CHEMBL1201862, “PubChem BioAssay data set” (2004)
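Following 48 hours of exposure in 96-well plates, responses at five concentrations were used to interpolate endpoints linearly. GI50 = concentration required for 50% inhibition of growth.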 The source made the active and inactive calls. No stated cut-off is given here; in the data, active = GI50 up to about 1.1 µM and inactive = higher.

Legend:
Experiment in all cases: NCI-60 cell line screen, 48 h
CAKI-1 = test system: CAKI-1
COLO 205 = test system: COLO 205
DU-145 = test system: DU-145
HCC 2998 = test system: HCC 2998
HCT-15 = test system: HCT-15
HL-60 = test system: HL-60
K562 = test system: K562
KM12 = test system: KM12
M14 = test system: M14
MCF7 = test system: MCF7
MDA-MB-435 = test system: MDA-MB-435
NCI-H226 = test system: NCI-H226
OVCAR-3 = test system: OVCAR-3
PC-3 = test system: PC-3
RPMI-8226 = test system: RPMI-8226
SF-268 = test system: SF-268
SK-MEL-2 = test system: SK-MEL-2
SN12C = test system: SN12C
SW-620 = test system: SW-620
UACC-62 = test system: UACC-62

Row | SMILES | GI50 (CAKI-1) | GI50 (COLO 205) | GI50 (DU-145) | GI50 (HCC 2998) | GI50 (HCT-15) [µM] | GI50 (HL-60) | GI50 (K562) | GI50 (KM12) | GI50 (M14) | GI50 (MCF7) | GI50 (MDA-MB-435) | GI50 (NCI-H226) | GI50 (OVCAR-3) | GI50 (PC-3) | GI50 (RPMI-8226) | GI50 (SF-268) | GI50 (SK-MEL-2) | GI50 (SN12C) | GI50 (SW-620) | GI50 (UACC-62)
1 | O=C1c2c(F)c(F)c(F)c(F)c2SC2=NCCN12 | 3.1 µM (inactive) | 7.23 µM (inactive) | 17.3 µM (inactive) | 14.5 µM (inactive) | 2.81 | 2.19 µM (inactive) | 2.1 µM (inactive) | 12.6 µM (inactive) | 4.53 µM (inactive) | 8.15 µM (inactive) | 2.85 µM (inactive) | 16.2 µM (inactive) | 4.91 µM (inactive) | 13.6 µM (inactive) | 4 µM (inactive) | 12.8 µM (inactive) | 1.84 µM (inactive) | 9.25 µM (inactive) | 2.38 µM (inactive) | 5.04 µM (inactive)
2 | CCOC(=O)c1sc(=S)n(-c2ccc(Cl)cc2)c1-n1cc(-c2ccccc2)c(C#N)c1N | > 100 µM (inactive) | > 100 µM (inactive) | 6.81 µM (inactive) | 34.2 µM (inactive) | 42.8 | 34.2 µM (inactive) | 44.4 µM (inactive) | > 100 µM (inactive) | 53.1 µM (inactive) | 15.7 µM (inactive) | 41 µM (inactive) | 13.6 µM (inactive) | 13.7 µM (inactive) | 11.8 µM (inactive) | 26.5 µM (inactive) | 2.72 µM (inactive) | 20.4 µM (inactive) | 18.6 µM (inactive) | 53 µM (inactive) | 24.8 µM (inactive)
3 | O=C1CC[N+]2=Cc3ccccc3O[B-]2(c2ccccc2)O1 (stereo not given) | > 100 µM (inactive) | > 100 µM (inactive) | > 100 µM (inactive) | > 100 µM (inactive) | > 100 | 89.9 µM (inactive) | > 100 µM (inactive) | > 100 µM (inactive) | > 100 µM (inactive) | > 100 µM (inactive) | > 100 µM (inactive) | > 100 µM (inactive) | > 100 µM (inactive) | > 100 µM (inactive) | > 100 µM (inactive) | > 100 µM (inactive) | > 100 µM (inactive) | > 100 µM (inactive) | > 100 µM (inactive) | > 100 µM (inactive)
4 | O=C1CCCc2cc3c(cc21)CC1(C3)Cc2cc3c(cc2C1)C(=O)CCC3 | 1.91 µM (inactive) | 1.33 µM (inactive) | 2.18 µM (inactive) | 2.34 µM (inactive) | 0.662 | 0.368 µM (active) | 0.396 µM (active) | 0.493 µM (active) | 0.536 µM (active) | 0.484 µM (active) | 0.231 µM (active) | 2.7 µM (inactive) | 1.57 µM (inactive) | 1.24 µM (inactive) | 0.746 µM (active) | 3.37 µM (inactive) | 1.57 µM (inactive) | 4.46 µM (inactive) | 0.815 µM (active) | 0.531 µM (active)
5 | CC(=O)NCC1OC2COC(c3ccccc3)OC2C2N=C(c3ccccc3)OC12 (stereo not given) | > 100 µM (inactive) | 30.7 µM (inactive) | > 100 µM (inactive) | 66.5 µM (inactive) | 43.4 | 26.7 µM (inactive) | 32.6 µM (inactive) | 40.4 µM (inactive) | 60.8 µM (inactive) | 41.9 µM (inactive) | 85.3 µM (inactive) | 67.5 µM (inactive) | 76 µM (inactive) | 24.9 µM (inactive) | 29.4 µM (inactive) | 81.1 µM (inactive) | 53.6 µM (inactive) | > 100 µM (inactive) | 80.9 µM (inactive) | 45.7 µM (inactive)
6 | CNc1nc2c(C)ccc3nc(N(C)C)[nH]c3c-2n1 | 65.5 µM (inactive) | 26.7 µM (inactive) | 42.2 µM (inactive) | 28.2 µM (inactive) | 23.9 | 26.9 µM (inactive) | 12.8 µM (inactive) | 39.4 µM (inactive) | 25.4 µM (inactive) | 31.5 µM (inactive) | 50.8 µM (inactive) | 76.7 µM (inactive) | 82.2 µM (inactive) | 46.9 µM (inactive) | 20.7 µM (inactive) | 32.4 µM (inactive) | 93.1 µM (inactive) | 36.1 µM (inactive) | 47.3 µM (inactive) | 68.7 µM (inactive)
7 | NC(=S)NS(=O)(=O)c1ccc(Cl)cc1 | > 100 µM (inactive) | > 100 µM (inactive) | > 100 µM (inactive) | > 100 µM (inactive) | > 100 | > 100 µM (inactive) | > 100 µM (inactive) | > 100 µM (inactive) | > 100 µM (inactive) | > 100 µM (inactive) | > 100 µM (inactive) | > 100 µM (inactive) | > 100 µM (inactive) | > 100 µM (inactive) | > 100 µM (inactive) | > 100 µM (inactive) | > 100 µM (inactive) | > 100 µM (inactive) | > 100 µM (inactive) | > 100 µM (inactive)
8 | O=[N+]([O-])c1cccc([N+](=O)[O-])c1Cl | 3.18 µM (inactive) | 20.6 µM (inactive) | 2.86 µM (inactive) | 1.47 µM (inactive) | 12.1 | 2.82 µM (inactive) | 5.71 µM (inactive) | 11.1 µM (inactive) | 10.2 µM (inactive) | 4.24 µM (inactive) | 17.9 µM (inactive) | 27 µM (inactive) | 1.29 µM (inactive) | 13.5 µM (inactive) | 1.15 µM (inactive) | 19.4 µM (inactive) | 21.8 µM (inactive) | 23.4 µM (inactive) | 17 µM (inactive) | 17.5 µM (inactive)
9 | CC(C)=NOC(=O)CNC(=O)C(Cc1ccccc1)NC(=O)C(C)NC(=O)OC(C)(C)C (stereo not given) | > 100 µM (inactive) | > 100 µM (inactive) | > 100 µM (inactive) | > 100 µM (inactive) | > 100 | > 100 µM (inactive) | > 100 µM (inactive) | > 100 µM (inactive) | > 100 µM (inactive) | > 100 µM (inactive) | > 100 µM (inactive) | > 100 µM (inactive) | > 100 µM (inactive) | > 100 µM (inactive) | > 100 µM (inactive) | > 100 µM (inactive) | > 100 µM (inactive) | > 100 µM (inactive) | > 100 µM (inactive) | > 100 µM (inactive)
10 | Cc1cc(OCc2nnc3sc(NC(=O)c4ccccc4)nn23)ccc1Cl | 18 µM (inactive) | 53.5 µM (inactive) | 24.4 µM (inactive) | 26.7 µM (inactive) | 38.7 | 34.6 µM (inactive) | 94.2 µM (inactive) | 21.5 µM (inactive) | 27.4 µM (inactive) | 30.3 µM (inactive) | 22 µM (inactive) | > 100 µM (inactive) | 30.7 µM (inactive) | 33.7 µM (inactive) | 26.7 µM (inactive) | 45 µM (inactive) | 28.8 µM (inactive) | 30.8 µM (inactive) | > 100 µM (inactive) | 33.3 µM (inactive)
11 | N#Cc1c(N)nc(Sc2ccccc2N)c(C#N)c1-c1ccc(Cl)cc1 | 17.9 µM (inactive) | 28.5 µM (inactive) | 12.7 µM (inactive) | 9.73 µM (inactive) | 7.4 | > 27.5 µM (inactive) | 3.07 µM (inactive) | 12.6 µM (inactive) | 10.5 µM (inactive) | 7.05 µM (inactive) | 11.7 µM (inactive) | 37.2 µM (inactive) | 6.34 µM (inactive) | 3.71 µM (inactive) | 2.61 µM (inactive) | 6.24 µM (inactive) | 5.14 µM (inactive) | 13.8 µM (inactive) | > 33.3 µM (inactive) | 4.06 µM (inactive)
12 | O=C1OC(CCCN2CCCCC2)(c2ccccc2)CC12CCCC2 (stereo not given) | > 100 µM (inactive) | 32.3 µM (inactive) | > 100 µM (inactive) | 66.1 µM (inactive) | > 95.3 | 52.5 µM (inactive) | 40.5 µM (inactive) | > 100 µM (inactive) | 17.7 µM (inactive) | 58.2 µM (inactive) | 67.8 µM (inactive) | > 96.6 µM (inactive) | > 100 µM (inactive) | > 100 µM (inactive) | 50 µM (inactive) | > 100 µM (inactive) | > 100 µM (inactive) | > 100 µM (inactive) | > 100 µM (inactive) | 61.4 µM (inactive)
13 | Cc1cc(C)nc(NS(=O)(=O)c2ccc(NNc3c4ccccc4nc4c(C(=O)Nc5ccc(S(=O)(=O)Nc6cc(C)on6)cc5)cccc34)cc2)n1 | 87.5 µM (inactive) | 36.4 µM (inactive) | 49.2 µM (inactive) | 23.2 µM (inactive) | 51.1 | 30.8 µM (inactive) | 34.5 µM (inactive) | 39.4 µM (inactive) | 53.2 µM (inactive) | 50.8 µM (inactive) | 41.5 µM (inactive) | 25.8 µM (inactive) | 20.4 µM (inactive) | 34.8 µM (inactive) | 42.9 µM (inactive) | 27.4 µM (inactive) | 22.7 µM (inactive) | 37 µM (inactive) | 39.5 µM (inactive) | 46.3 µM (inactive)
14 | O=C1c2cc3ccccc3cc2C2(c3ccc(Cl)cc3)NCCN12 (stereo not given) | 44.7 µM (inactive) | 17.6 µM (inactive) | 40.6 µM (inactive) | 21.1 µM (inactive) | 27 | 25.8 µM (inactive) | 61.7 µM (inactive) | 20.7 µM (inactive) | 26.8 µM (inactive) | 26.2 µM (inactive) | 33 µM (inactive) | 34.5 µM (inactive) | 23.6 µM (inactive) | 31.1 µM (inactive) | 29.4 µM (inactive) | 44.2 µM (inactive) | 24.6 µM (inactive) | 49.5 µM (inactive) | 50.4 µM (inactive) | 19.2 µM (inactive)
